Measurements published in patent US9593144B2, “FPR1 antagonist derivatives and use thereof” (CHANG GUNG UNIVERSITY, priority 2014, dated 2017).
Square brackets hold non-standard residues; d marks the D form. Peptide text beside a SMILES is read from it. * marks the point of attachment. Bz = O=C(c1ccccc1)*

Legend:
[1] = test system: human neutrophils; assay: cells; assay type: cell-based; settings: for IC50: Neutrophil
Text: Tables 5 and 6 explore whether there is an anti-inflamatory effect in the dipeptide derivatives. Because ferricytochrome c cannot penetrate cell membranes, it reacts with superoxide anion extracellularly. Also, there are absorptive reactions at 550 nm, and differences among the absorptive reactions can be used to evaluate the influence on the release of superoxide anion. The elastase is released by degranulation as the neutrophil is activated. Tables 5 and 6 use the substrate, MeO-Suc-Ala-Ala-Pro-Val-p-nitroanilide, with the specificity for reacting with the elastase so as to evaluate the influence of the candidate compound on the elastase release.
Blood was taken from healthy human donors (20-32 years old) by venipuncture, following a protocol approved by the Institutional Review Board at Chang Gung Memorial Hospital. Neutrophils were isolated by a standard method of dextran sedimentation prior to centrifugation in a Ficoll Hypaque gradient and the hypotonic lysis of erythrocytes.
The evaluation of O2.^− generation was based on the SOD-inhibitable reduction of ferricytochrome c. In brief, after supplementation with 0.5 mg ml^−1 ferricytochrome c and 1 mM Ca^2+, neutrophils were equilibrated at 37° C. for 2 min and incubated with drugs […].

[2] = test system: MAPKs (ERK, p38 and JNK) and Akt; assay: Western blot: phosphorylation of MAPKs (ERK, p38, JNK) and Akt in fMLF-stimulated neutrophils; assay type: cell-based, human; settings: HCH6-1 10 μM pre-processed 5 min; fMLF 3 nM, 30 sec
Text: Mitogen-activated protein kinases (MAPKs) and the expression of Akt phosphorylation are closely related to the regulation of cell inflammatory response. By specific binding of antibodies, each compound's influence on protein expression activated by different signals was observed. As to neutrophils, MAPKs (ERIK, p38, and JNK) and Akt signal transduction pathways are involved in the regulation of superoxide anion generation and elastase release. It is can be seen from the above-mentioned experiments that HCH6-1 is capable of competitively inhibiting superoxide anion generation and elastase release. Whether downstream MAPKs and Akt signal transduction pathways of FPR1 were involved in the regulation of superoxide anion generation and elastase release is explored below.
The experimental conditions were as follows. HCH6-1 (10 μM) was pre-processed for 5 min, followed by stimulus of fMLF (3-30 nM) for 30 sec.

[3] = test system: human neutrophils; assay: Cytotoxic test: lactate dehydrogenase (LDH) release from human neutrophils; assay type: cell-based
Description: FIGS. 1(a)-1(b) show the influences of HCH6-1 on releasing lactate dehydrogenase (LDH) from human neutrophils under the following experimental conditions. The suspension of neutrophils was reacted with different concentrations of candidate compounds for 15 min, or fixed concentrations of candidate compounds for various times. Also, 0.1% Triton X-100 was added to react for 30 min as a release amount of total lactate dehydrogenase (Total LDH), wherein the supernatant was subjected to centrifugation for 8 min, at 200 g and at 4° C., and then a lactate dehydrogenase reagent was added and kept in the dark and at room temperature for 30 min, and an absorbance at 492 nm was monitored. Results are measured based on Total LDH as 100%.

[4] = test system: human neutrophils; assay: Expression of CD11b on the cell surface of activated neutrophils (flow cytometry); assay type: cell-based
Description: The suspension of neutrophils was mixed at 37° C. and pre-heated for 5 min, and then compounds with different concentrations for measurements were added. […] And the reaction termination is done by on-ice setting. The supernatant was removed after centrifugation, and make the cells suspension again in the balanced salt solution containing bovine serum albumin (BSA). Anti-CD11b with fluorescein isothiocyanate (FITC) labeling was added, and kept on ice and in the dark. Finally, a balanced salt solution was added to terminate the reaction. By means of the flow cytometer for detecting the anti-CD11b with fluorescein isothiocyanate (FITC) labeling, it is possible to further evaluate whether the candidate compounds had influence on CD11b expression on the cell membranes of activated neutrophils according to changes in fluorescence. […].

[5] = target: T1, formyl peptide receptor 1 (FPR1) (Homo sapiens, UniProt P21462); assay: Receptor test: competition with fluorescent FNLFNYK for binding to FPR1 on human neutrophils; settings: membranes of human neutrophils; read-out: inhibition of FNLFNYK bound to FPR1, IC50
T1 construct: the effect of FNLFNYK combined with FPR1 on the membranes of human neutrophils; endogenous in cells; host or cells: human neutrophils
T1 sequence (P21462 1-350): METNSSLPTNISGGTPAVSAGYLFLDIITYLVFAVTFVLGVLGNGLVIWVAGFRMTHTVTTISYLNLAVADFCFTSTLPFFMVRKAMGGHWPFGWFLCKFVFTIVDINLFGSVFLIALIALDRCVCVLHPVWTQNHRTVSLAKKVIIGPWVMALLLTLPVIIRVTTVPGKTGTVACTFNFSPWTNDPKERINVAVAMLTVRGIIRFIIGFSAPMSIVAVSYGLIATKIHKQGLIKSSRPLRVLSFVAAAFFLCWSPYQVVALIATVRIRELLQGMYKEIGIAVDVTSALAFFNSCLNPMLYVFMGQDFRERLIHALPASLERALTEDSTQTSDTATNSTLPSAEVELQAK
Text: Membranes of human neutrophils contain fMLF receptor, formyl peptide receptor 1 (FPR1), with which formyl-NIe-Leu-Phe-NIe-Tyr-Lys (FNLFNYK) carrying the fluorescence property was combined with FPR1 and competed with the candidate compound for receptor binding. Therefore, by binding with the receptor, it was possible to further clarify whether the compound interacts with the receptor.

COC(=O)[C@@H](Cc1ccccc1)NC(=O)[C@H](Cc1c[nH]c2ccccc12)NC(=O)c1ccccc1 [Compound 3, N—(N-Benzoyl-L-tryptophanyl)-D-phenylalanine methyl ester] (Bz-Trp-[dF]-OMe)
IC50 ([1]; WKYMVm, mean ± SEM, n = 4 or 8, Table 5, read-out: Superoxide anion WKYMVm IC50): 4980 ± 270 nM
IC50 ([1]; WKYMVm/CB, mean ± SEM, n = 3, Table 4, read-out: WKYMVm/CB O2•− generation (IC50)): 4830 ± 660 nM
IC50 ([1]; human neutrophils triggered by fMLF, read-out: IC50 of inhibitory effect (superoxide anion, fMLF) restated in text): 320 ± 30 nM
IC50 ([1]; human neutrophils, fMLF/CB, mean ± SEM, n = 3, Table 4, read-out: fMLF/CB O2•− generation (IC50)): 230 ± 20 nM
IC50 ([1]; human neutrophils, fMLF, mean ± SEM, n = 4 or 8, Table 5, read-out: Superoxide anion fMLF IC50): 320 ± 30 nM
IC50 ([1]; human neutrophils, fMLP/CB, mean ± SEM, n = 3, Table 1, read-out: Anti-inflammation O2•− generation (IC50)): 230 ± 20 nM
selectivity for FPR1/2 and FPR1 (difference WKYMVm vs fMLF) ([1]; superoxide anion, WKYMVm vs fMLF): 15 fold
phosphorylation for MAPKs (ERK, p38 and JNK) and Akt [2]: significantly suppressed phosphorylation
melting point: 174 to 176 °C
toxicity to cells (LDH release) during a long period ([3]; HCH6-1 30 μM, 120 min, FIG. 1(b)): no significant toxicity
toxicity to neutrophils (LDH release) ([3]; different concentrations, 15 min, FIG. 1(a)): not the results of toxicity to the neutrophils
IC50 ([4]; Homo sapiens, Neutrophil, stimulus of fMLF (30 nM)/CB, read-out: inhibition of CD11b expression on cell membranes, IC50): 260 ± 50 nM
inhibition of CD11b expression on cell membranes ([4]; stimulus of IL-8 (100 nM), FIG. 2(n)): no inhibitory effects
inhibition of CD11b expression on cell membranes ([4]; stimulus of MMK1, FIG. 2(h)): no inhibitory effects
IC50 [5]: 2020 ± 340 nM
